One compound from patent US20240033244A1, “COMPOSITIONS AND METHODS FOR INHIBITING YTHDF1” (SHANGHAI INSTITUTE OF MATERIA MEDICA, CHINESE ACADEMY OF …, priority 2020, published 2024) can be followed below.

The structures appear in SMILES notation.

Assay [1] addresses T1, YTHDF1 (361-559) (Homo sapiens, UniProt Q9BYJ9).
T1 construct: GST (N, cleaved yes); made in house; host or cells: E. coli BL21 (DE3)
T1 sequence (Q9BYJ9 with tags, fused parts or gaps): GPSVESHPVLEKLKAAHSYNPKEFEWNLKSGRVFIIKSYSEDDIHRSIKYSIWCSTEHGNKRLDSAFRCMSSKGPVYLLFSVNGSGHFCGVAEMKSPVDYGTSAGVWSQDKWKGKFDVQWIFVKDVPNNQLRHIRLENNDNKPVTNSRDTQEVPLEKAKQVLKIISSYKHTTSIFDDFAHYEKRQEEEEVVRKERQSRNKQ
The assay can be described thus: Isothermal Titration Calorimetry (ITC). The format is binding. To be noted: 25° C. The method, then:
Purified YTHDF1 (361-559) was dialyzed at 4° C. overnight in dialysis buffer (20 mM Hepes (pH 7.4) and 200 mM NaCl). Then dialyzed protein was diluted to 50 μM with dialysis buffer. […] Isothermal titration calorimetry (ITC) was conducted on a Microcal ITC 200 isothermal titration calorimeter (GE Healthcare) at 25° C. 200 μL 50 μM YTHDF1 (361-559) was filled in the sample cell and constantly stirred at 750 rpm; 40 μL 1 mM SAA was filled in the syringe. […] Then in order to make the titration effect more obvious, the nineteen […] injections were changed after calculation into five 2.5 μL injections followed by fourteen 1.9 μL injections. […] The experimental data was analyzed via Microcal ORIGIN (v7.0) software (Microcal Software).
Then, the binding affinity between SAA and YTHDF1 was evaluated. The Isothermal Titration Calorimetry (ITC) assay was performed to accurately test the equilibrium dissociation constants (Kd) between YTHDF1 and SAA. The ITC assay was conducted on a Microcal iTC200 isothermal titration calorimeter (GE Healthcare) for three times independently. Briefly, freshly purified YTHDF1 (50 μM) was titrated with 1 mM SAA at 25° C. in a buffer comprising 20 mM Hepes (pH 7.4) and 200 mM NaCl.

Assay [2] deals with T1, YTHDF1 (361-559). The assay can be described thus: Fluorescence polarization (FP) assay, inhibition of m6A-containing mRNA binding to YTHDF1. The conditions noted are these: read-out: IC50, inhibition of interaction between m6A-containing mRNA and YTHDF1. (Fluorescence polarisation rises when a labelled molecule tumbles more slowly, as on binding a larger partner.)
Experimental: As for activity tests, 1.25 μM YTHDF1 (361-559) was incubated with candidate compounds diluted to concentrations as indicated for 30 minutes. The subsequent steps were similar to that of HTS. And an equal amount of DMSO was used as the negative control.
Another assay concerns the target T2, YTHDF1 mutant H528A (Homo sapiens, UniProt Q9BYJ9, H528A).
T2 construct: GST (N, cleaved yes); made in house; host or cells: E. coli BL21 (DE3)
Put plainly: FP assay with YTHDF1 mutant H528A. The format is binding. The method, then:
The protein YTHDF1 (361-559) (SEQ ID NO: 2) and its mutants (SEQ ID NOs: 4-13) were cloned into pGEx-6P-1 vector (obtained from YouBio Co, Ltd, Catalog NO: VT1258), and the His-YTHDF1 (361-559) (SEQ ID NO: 3) used in AlphaScreen Assay was cloned into modified pET28a vector (obtained from YouBio Co, Ltd, Catalog NO: VT1207). The vectors were transformed into E. coli BL21 (DE3) cells and cultured at 37° C. When OD value reached 0.6˜0.8, 1 mM Isopropyl-β-D-thiogalactopyranoside was added to overexpress the protein at 16° C. overnight. […] Then, the proteins were further purified via cation exchange (HiTrap SP, GE Healthcare) and finally through a Superdex 75 10/300 column (GE Healthcare). At last, the purified YTHDF1(361-559) and the mutants were kept in buffer which contains 20 mM Hepes (pH 7.4) and 200 mM NaCl. For His-YTHDF1 (361-559), the protein was purified via Ni-NTA chromatography (HisTrap FF, GE Healthcare), followed by cation exchange and Superdex 75 10/300 column in sequence. And the obtained protein was kept in the buffer with the same ingredients.
All of the YTHDF1 (361-559), the 5′-FAM labeled m^6A-containing mRNA (5′-FAM-[…] (m^6A) CUGUG-3′, SEQ ID NO: 14) and the candidate compounds were diluted with assay buffer (20 mM Hepes (pH 7.4), 50 mM NaCl, 0.01% (v/v) tween 20, 5% (v/v) glycerol). […] At last, the mixtures were measured by Envision Readers (PerkinElmer). […]

The target in assay [3] is T1, YTHDF1 (361-559). The assay can be described thus: Microscale thermophoresis (MST) assay. In kind it is binding. The method, then: Microscale Thermophoresis (MST) assay was performed on MiscroScale Thermophoresis instrument (NanoTemper Technologies) at room temperature using the label-free method. […] And the YTHDF1 (361-559) was diluted to 4 μM with MST buffer. […] Before measuring, the mixture was centrifuged at 13000 rpm for 10 minutes at 4° C. At last, the samples were collected by Monolith NT™ Automated Label Free capillaries (NanoTemper Technologies) and the measurement was started. […] Affinity Analysis Software v2.3 (NanoTemper Technologies).

T2 sequence (Q9BYJ9 with tags, fused parts or gaps H528A): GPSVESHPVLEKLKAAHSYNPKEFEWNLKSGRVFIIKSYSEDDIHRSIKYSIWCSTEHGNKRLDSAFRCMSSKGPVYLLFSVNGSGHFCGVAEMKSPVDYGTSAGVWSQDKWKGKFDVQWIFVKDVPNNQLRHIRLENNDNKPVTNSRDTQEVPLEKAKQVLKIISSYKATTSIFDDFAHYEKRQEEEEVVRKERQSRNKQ

By Kd is commonly meant a measure of binding affinity in units of concentration. A low value points to higher affinity. The IC50 is the concentration that inhibits the measured activity by half. Take `O=C(/C=C/c1ccc(O)c(O)c1/C=C/c1ccc(O)c(O)c1)O[C@H](Cc1ccc(O)c(O)c1)C(=O)O` [SAA, Salvianolic Acid A]: the “entropy change ΔS” value at YTHDF1 (361-559) [1] was 13.6 cal/mol/deg. Besides, the values for the Kd on YTHDF1 (361-559) [1] (50 μM YTHDF1 titrated with 1 mM SAA) and on YTHDF1 (361-559) [3] were 5.71 µM and 4.7 µM, respectively. The IC50 on YTHDF1 (361-559) [2] came to 2.3 ± 0.11 µM. Moreover, the “inhibitory activity against mutant binding to m6A versus wildtype” value at YTHDF1 mutant H528A is “significantly weaker than that against wildtype YTHDF1”.
